# From patent US20250179077A1, “QUINAZOLINE COMPOUNDS AND USES THEREOF AS INHIBITORS OF MUTANT KRAS PROTEINS” (AMGEN INC., priority 2022, published 2025)
# Read-outs that look alike come from different tables or passages of the source.
# Legend:
# [1] = target: His-tagged KRAS G12D protein (Homo sapiens, UniProt P01116, G12D); assay: KRAS G12D TR-FRET Assay; assay type: binding
# Procedure, shortened: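 His-KRAS G12D (20 nM) was preincubated with titrated compound for 30 min at RT in HEPES pH 7.4 buffer with MgCl2, 10 μM GDP. Biotin-KRPep-2d (20 nM) was then added for 1 h, followed by Eu-anti-His/streptavidin-d2 for 1 h. The 665/615 nm TR-FRET ratio was fitted 4-parameter to give IC50.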
# [2] = target: GDP-bound KRAS protein (aa 1-169), containing both G12D and C118A amino acid substitutions (Homo sapiens, UniProt P01116, C118A/G12D); assay: KRAS G12D Coupled Nucleotide Exchange Assay; assay type: biochemical
# Method: KRAS G12D Coupled Nucleotide Exchange Assay
# Following compound pre-incubation, purified SOS protein (aa 564-1049) and GTP (Roche 10106399001) were added to the assay wells and incubated for an additional 30 min. […] The assay plates were then read on a PerkinElmer EnVision Multilabel Reader, using AlphaScreen® technology, and data were analyzed using a 4-parameter logistic model to calculate IC50 values.
# [3] = system: Phosphorylation of ERK1/2 in AsPC-1 cells; assay: Phospho-ERK1/2 MSD Assay; assay type: cell-based; settings: Homo sapiens
# Procedure, shortened: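 Phospho-ERK1/2 was quantified by MSD whole-cell lysate immunoassay in RIPA lysates made with protease/phosphatase inhibitors. A 4-parameter logistic model gave IC50.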
# [4] = ASPC1, 2 h, read-out: 2 h p-ERK (AsPC-1 cells), IC50, AsPC-1 cells, 2 h compound treatment
# His-tagged KRAS G12D protein, sequence (P01116 1-188 isoform P01116-2 G12D): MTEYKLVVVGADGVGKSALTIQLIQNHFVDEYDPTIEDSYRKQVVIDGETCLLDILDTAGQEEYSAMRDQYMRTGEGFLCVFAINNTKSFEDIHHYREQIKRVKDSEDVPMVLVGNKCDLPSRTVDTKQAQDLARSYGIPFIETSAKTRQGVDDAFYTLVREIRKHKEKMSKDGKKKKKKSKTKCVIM
# GDP-bound KRAS protein (aa 1-169), containing both G12D and C118A amino acid substitutions, sequence (P01116 1-169 isoform P01116-2 G12D/C118A): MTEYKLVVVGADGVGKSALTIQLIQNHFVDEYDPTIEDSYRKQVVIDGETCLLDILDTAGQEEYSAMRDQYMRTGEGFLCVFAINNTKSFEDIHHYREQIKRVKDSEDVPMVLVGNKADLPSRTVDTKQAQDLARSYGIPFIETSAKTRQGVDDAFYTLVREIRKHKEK
structure (smiles),measurement,setting,value
"C/C=C\c1c(Cl)cc2[nH]ncc2c1-c1ccc2c(N3CCC[C@]4(CCO4)C3)nc(OC[C@@]34CCCN3C[C@H](F)C4)nc2c1F [Example 116, (4S)-6-(7-(6-Chloro-5-((Z)-prop-1-en-1-yl)-1H-indazol-4-yl)-8-fluoro-2-(((2R,7aS)-2-fluorotetrahydro-1H-pyrrolizin-7a(5H)-yl)methoxy)quinazolin-4-yl)-1-oxa-6-azaspiro[3.5]nonane]",IC50,[1],3 nM
same,IC50,[2],2 nM
same,IC50,[3]; [4],59 nM
"C/C=C\c1c(Cl)cc2[nH]ncc2c1-c1ccc2c(N3CCCC4(CNC(=O)O4)C3)nc(OC[C@@]34CCCN3C[C@H](F)C4)nc2c1F (stereo partly drawn) [Example 117, 7-(7-(6-Chloro-5-((Z)-prop-1-en-1-yl)-1H-indazol-4-yl)-8-fluoro-2-(((2R,7aS)-2-fluorotetrahydro-1H-pyrrolizin-7a(5H)-yl)methoxy)quinazolin-4-yl)-1-oxa-3,7-diazaspiro[4.5]decan-2-one]",IC50,[1],3 nM
same,IC50,[2],2 nM
same,IC50,[3]; [4],74 nM
"C/C=C\c1c(Cl)cc2[nH]ncc2c1-c1c(F)cc2c(N3CCC[C@@](C)(O)C3)nc(OC[C@@]34CCCN3C[C@H](F)C4)nc2c1F [Example 119, (3R)-1-(7-(6-Chloro-5-((Z)-prop-1-en-1-yl)-1H-indazol-4-yl)-6,8-difluoro-2-(((2R,7aS)-2-fluorotetrahydro-1H-pyrrolizin-7a(5H)-yl)methoxy)quinazolin-4-yl)-3-methylpiperidin-3-ol]",IC50,[1],16 nM
same,IC50,[2],11 nM
same,IC50,"[3]; ASPC1, read-out: 2 h p-ERK (AsPC-1 cells), IC50, AsPC-1 cells, 2 h compound treatment",111 nM
